Results: ChEMBL document CHEMBL5120883, “The Dawn of Allosteric BCR-ABL1 Drugs: From a Phenotypic Screening Hit to an Approved Drug” (2022)

System: BaF3
Experiment: Antiproliferative activity against mouse BaF3 cells expressing Bcr-Abl assessed as cell growth inhibition
Type: functional

FC(F)(F)c1ccc(Nc2cc(NCCN3CCOCC3)ncn2)cc1 and FC(F)(F)Oc1ccc(Nc2cc(NCCN3CCOCC3)ncn2)cc1 are within 1.5-fold of each other in GI50: 920 nM for the first, 720 nM for the second.

First: NS(=O)(=O)c1ccc(-c2cc(Nc3ccc(OC(F)(F)F)cc3)ncn2)cc1
Second: FC(F)(F)Oc1ccc(Nc2cc(-c3ccc4[nH]ccc4c3)ncn2)cc1
The GI50 of the first is 2.4-fold lower: 120 nM for the first, 290 nM for the second.

First: FC(F)(F)Oc1ccc(Nc2cc(-c3cn[nH]c3)ncn2)cc1
Second: FC(F)(F)Oc1cccc(Nc2cc(NCCN3CCOCC3)ncn2)c1
The GI50 of the first is 8-fold lower: 90 nM for the first, 720 nM for the second.
